What was measured:
[1] = test system: MCF7; assay: Cytotoxicity against Homo sapiens (human) MCF7 cells assessed as cell survival after 72 hr by XTT assay; format: functional; design: concentration or dose not given beside the values
[2] = Cytotoxicity against Chlorocebus aethiops (African green monkey) Vero cells assessed as cell survival after 72 hr by XTT assay; format: cell-based; design: concentration or dose not given beside the values; conditions: chlorocebus sabaeus, read-out: Activity
[3] = test system: Vero; assay: Cytotoxicity against Chlorocebus aethiops (African green monkey) Vero cells after 72 hr by XTT assay; format: cell-based; conditions: Chlorocebus sabaeus
[4] = test system: MCF7; assay: Cytotoxicity against Homo sapiens (human) MCF7 cells after 72 hr by XTT assay; format: functional, cell-based; conditions: MCF7, 72 h

In the case of O=C(CN1C(=O)C(=O)c2ccccc21)Nc1ccccc1[N+](=O)[O-], the Activity [1] is reported as >50% and the viability at 72 h [2] is reported as > 50%.

O=C(CN1C(=O)C(=O)c2cc(Br)cc(Br)c21)Nc1ccccc1 showed an IC50 [3] of 28.1 µM and an IC50 [4] of 3.91 µM.

For Cc1ccc(NC(=O)CN2C(=O)C(=O)c3cc(Br)cc(Br)c32)cc1, the IC50 [3] was 25 µM and the IC50 [4] was 2.43 µM.

In the case of O=C(CN1C(=O)C(=O)c2cc(Br)cc(Br)c21)Nc1ccc([N+](=O)[O-])cc1, the IC50 [3] is reported as 38.1 µM and the IC50 [4] is reported as 1.96 µM.

With Cc1ccc(NC(=O)CN2C(=O)C(=O)c3ccccc32)cc1 the Activity [1] was >50% and the viability at 72 h [2] was > 50%.

In the case of O=C(CN1C(=O)C(=O)c2ccccc21)Nc1ccccc1, the Activity [1] is reported as >50% and the viability at 72 h [2] is reported as > 50%.

CC[C@]1(O)C[C@@H]2CN(CCc3c([nH]c4ccccc34)[C@@](C(=O)OC)(c3cc4c(cc3OC)N(C)[C@H]3[C@@](O)(C(=O)OC)[C@H](OC(C)=O)[C@]5(CC)C=CCN6CC[C@]43[C@@H]65)C2)C1 [VINBLASTINE] gave an IC50 [3] of 27.1 µM and an IC50 [4] of 1.9 µM.

In the case of Cc1ccccc1NC(=O)CN1C(=O)C(=O)c2cc(Br)cc(Br)c21, the IC50 [3] is reported as 29.9 µM and the IC50 [4] is reported as 3.85 µM.

For O=C(CN1C(=O)C(=O)c2ccccc21)Nc1ccc([N+](=O)[O-])cc1, the Activity [1] was >50% and the viability at 72 h [2] was > 50%.

For Cc1ccccc1NC(=O)CN1C(=O)C(=O)c2ccccc21, the Activity [1] was >50% and the viability at 72 h [2] was > 50%.

O=C(CN1C(=O)C(=O)c2cc(Br)cc(Br)c21)Nc1ccccc1[N+](=O)[O-] gave an IC50 [3] of 26 µM and an IC50 [4] of 2.04 µM.

Source: ChEMBL document CHEMBL3046046, “Design, synthesis, and QSAR study of novel 2-(2,3-dioxo-2,3-dihydro-1H-indol-1-yl)-N-phenylacetamide derivatives as cytotoxic agents” (Med Chem Res, 2011)
